In assay [1] the test system is spleen cells of C57BL/6 mouse and pancreatic cells of BALB/c mouse. Nature of the assay: Lymphocyte mixed culture reaction (mouse MLR), uptake of 3H-TdR. The format is cell-based. Particulars: for activity at 1 µg/mL / activity at 0.1 µg/mL / activity at 0.01 µg/mL: Mus musculus, Lymphocyte, 50 h, read-out: Uptake of ^3H-TdR (% of control). As for the experimental part: Experiment was carried out with the spleen cells of C57BL/6 mouse which had been treated with mitomycin C (50 µg/ml, 30 min) as the stimulator and with the […] cells of BALB/c mouse as the responder. These […] cells were suspended to a concentration of 2 × 10^6 cells/ml with a culture medium of 10% FCS RPMI 1640, respectively. These cells (50 µl/well) and a sample (10 µl/well) were plated in a 96 well round-bottomed plate and cultured for 42 hours* under the condition of 37°C and 5% CO2. ^3H-thymidine (^3H-TdR) was added in a dose of 0.5 µCi/well. After 8 hours, the cells were harvested and subjected to the measurement of the uptake of ^3H-TdR by a liquid scintillation counter.
*The samples of the compounds 32, 33 and 34 were cultured for 4 days.

In assay [2] the test system is B16 mouse melanoma cells. In words: Anti-tumor activity against B16 mouse melanoma inoculated subcutaneously. The format is in vivo. Particulars: maximum tumor growth inhibition rate during the test period of 20 days, female BDF1 mice, 0.1 mg/kg intravenously on days 1, 5 and 9 after s.c. inoculation; for inhibition in vivo at 0.1 mg/kg: Mus musculus, iv, 480 h, read-out: TGIR (%). How it is done: Anti-tumor activity against B16 mouse melanoma inoculated subcutaneously.
Experiment was carried out with the groups of 6 female BDF1 mice (6 weeks old) purchased from Japan SLC Inc., B16 mouse melanoma cells (1 × 10^6 cells/mouse) were inoculated subcutaneously in the rear region of mice, and the sample prepared in a concentration of 0.1 mg/kg was administered intravenously at a dose of 0.2 ml/20g/mouse after 1, 5 and 9 days from inoculation (the day of inoculation being set as 0 day). The volume of the tumor at the hypodermis of the rear region [(longer diameter × shorter diameter × height)/2] was measured on 8, 12, 16 and 20 days after inoculation, and the tumor growth inhibition rate (TGIR) of each sample was determined. TGIR was calculated from the following equation: TGIR (%) = (1 - T/C) × 100 [formula] wherein C represents a tumor volume of the control group and T represents a tumor volume of the group to which the sample was administered.
In this connection, respective test runs were divided by broken lines.

[3] abbreviates: sample concentration 10^0 µg/ml, cultured for 42 hours, then 8 hours with 3H-TdR.
Where [4] appears, read: sample concentration 10^-1 µg/ml, cultured for 42 hours, then 8 hours with 3H-TdR.
Setting [5] is: sample concentration 10^-2 µg/ml, cultured for 42 hours, then 8 hours with 3H-TdR.

With `CCCCCCCCCCCCCCCCCCCCCCCC[C@@H](O)C(=O)N[C@@H](CO[C@H]1O[C@H](CO)[C@H](O)[C@H](O)[C@H]1O)[C@H](O)[C@H](O)CCCCCCCCCCCCCCCC` [Compound 27, (2S,3S,4R)-1-(α-D-galactopyranosyloxy)-2-[(R)-2-hydroxyhexacosanoylamino]-3,4-icosanediol], the activity at 1 µg/mL in assay [1] (setting [3]) amounted to 257%. For the same compound, the activity at 0.1 µg/mL in assay [1] (setting [4]) was 181%. The activity at 0.01 µg/mL in assay [1] (setting [5]) amounted to 162%. For the same compound, in assay [2], the inhibition in vivo at 0.1 mg/kg stood at 92.8%.
In the same order, the values of `CCCCCCCC/C=C\CCCCCCCC(=O)N[C@@H](CO[C@H]1O[C@H](CO)[C@H](O)[C@H](O)[C@H]1O)[C@H](O)CCCCCCCCCCCCCCC` [Compound 29, (2S,3R)-1-(α-D-galactopyranosyloxy)-2-oleoylamino-3-octadecanol] are 319%, 382%, 215% and 79.7%.
For `CCCCCCCCCCCCCCCCCCCCCCCC(=O)N[C@@H](CO[C@H]1O[C@H](CO)[C@H](O)[C@H](O)[C@H]1O)[C@H](O)[C@H](O)CCCCCCC` [Compound 19, (2S,3S,4R)-1-(α-D-galactopyranosyloxy)-2-tetracosanoylamino-3,4-undecanediol], in that order: 345%, 188%, 144% and 80.2%.
In the same order, the values of `CCCCCCCCCCCCCCCCCCCCCCCC(=O)N[C@@H](CO[C@H]1O[C@H](CO)[C@H](O)[C@H](O)[C@H]1O)[C@H](O)CCCCCCCCCCC` [Compound 9, (2S,3R)-1-(α-D-galactopyranosyloxy)-2-tetracosanoylamino-3-tetradecanol] are 460%, 193%, 176% and 71.5%.
For the compound `CCCCCCCCCCCCCCCCCCCCCCCCCC(=O)N[C@@H](CO[C@H]1O[C@H](CO)[C@H](O)[C@H](O)[C@H]1O)[C@H](O)[C@H](O)CCCCCCCCCCCCC` [Compound 20, (2S,3S,4R)-1-(α-D-galactopyranosyloxy)-2-hexacosanoylamino-3,4-heptadecanediol], the activity at 1 µg/mL in assay [1] (setting [3]) amounted to 443%. Further, in assay [1] (setting [4]), the activity at 0.1 µg/mL is 188%. In addition, the activity at 0.01 µg/mL in assay [1] (setting [5]) was 192%. Moreover, the inhibition in vivo at 0.1 mg/kg in assay [2] was determined as 73.7%.
For `CCCCCCCCCCCCCCC[C@@H](O)[C@H](CO[C@H]1O[C@H](CO)[C@H](O)[C@H](O)[C@H]1O)NC(C)=O` [Compound 8, (2S,3R)-2-acetamino-1-(α-D-galactopyranosyloxy)-3-octadecanol], in that order: 297%, 189%, 96% and 22.1%.
For `CCCCCCCCCCCCCC(=O)N[C@@H](CO[C@H]1O[C@H](CO)[C@H](O)[C@H](O)[C@H]1O)[C@H](O)CCCCCCCCCCCCC` [Compound 10, (2S,3R)-1-(α-D-galactopyranosyloxy)-2-tetradecanoylamino-3-hexadecanol], in assay [1] (setting [3]), the activity at 1 µg/mL worked out at 610%. For the same compound, the activity at 0.1 µg/mL in assay [1] (setting [4]) was found to be 381%. The activity at 0.01 µg/mL in assay [1] (setting [5]) came out at 157%. Moreover, the inhibition in vivo at 0.1 mg/kg in assay [2] was 76.5%.
On to `CCCCCCCCCCCCC/C=C/[C@@H](O)[C@H](CO[C@H]1O[C@H](CO)[C@H](O)[C@H](O)[C@H]1O)NC(=O)CCCCCCCCCCCCCCCCC` [Compound 15, (2S,3R,4E)-1-(α-D-galactopyranosyloxy)-2-octadecanoylamino-4-octadecen-3-ol], for which, in assay [1] (setting [3]), the activity at 1 µg/mL was determined as 360%. The activity at 0.1 µg/mL in assay [1] (setting [4]) came to 165%. In addition, the activity at 0.01 µg/mL in assay [1] (setting [5]) turned out to be 144%. Also, in assay [2], the inhibition in vivo at 0.1 mg/kg was determined as 61.9%.
In the same order, the values of `CCCCCCCCCCCCCCCCCCCCCC[C@H](O)C(=O)N[C@@H](CO[C@H]1O[C@H](CO)[C@H](O)[C@H](O)[C@H]1O)[C@H](O)[C@H](O)CCCCCCCCCCCCC` [Compound 28, (2S,3S,4R)-1-(α-D-galactopyranosyloxy)-2-[(S)-2-hydroxytetracosanoylamino]-3,4-heptadecanediol] are 357%, 172%, 141% and 76.2%.
For `CCCCCCCCCCCCCCCCCCCCCCCC[C@@H](O)C(=O)N[C@@H](CO[C@H]1O[C@H](CO)[C@H](O)[C@H](O)[C@H]1O)[C@H](O)[C@H](O)CCCCCCCCCCCCCCC` [Compound 26, (2S,3S,4R)-1-(α-D-galactopyranosyloxy)-2-[(R)-2-hydroxyhexacosanoylamino]-3,4-nonadecanediol], in that order: 253%, 199%, 193% and 72.3%.
Regarding `CCCCCCCCCCCCCCCCCCCCCCCC[C@@H](O)C(=O)N[C@@H](CO[C@H]1O[C@H](CO)[C@H](O)[C@H](O)[C@H]1O)[C@H](O)[C@H](O)CCCCCCCCCCCCCC` [Compound 25, (2S,3S,4R)-1-(α-D-galactopyranosyloxy)-2-[(R)-2-hydroxyhexacosanoylamino]-3,4-octadecanediol], in assay [1] (setting [3]), the activity at 1 µg/mL was 230%. Moreover, the activity at 0.1 µg/mL in assay [1] (setting [4]) turned out to be 179%. Further, in assay [1] (setting [5]), the activity at 0.01 µg/mL turned out to be 161%. Besides, the inhibition in vivo at 0.1 mg/kg in assay [2] was determined as 92.8%.
For the compound “(2S,3S,4R)-1-(α-D-galactopyranosyloxy)-2-[(R)-2-hydroxytricosanoylamino]-16-methyl-3,4-heptadecanediol [Compound 33]”, the “Uptake of ^3H-TdR (% of control)” value in assay [1] (sample concentration 10^-1 µg/ml, cultured for 4 days) is on record as 365 % of control; in assay [1] (sample concentration 10^-2 µg/ml, cultured for 4 days), 422 % of control. The “TGIR (%)” value in assay [2] is recorded as 76.5%.
`CCCCCCCCCCCCCCCCCCCCCCCC(=O)N[C@@H](CO[C@H]1O[C@H](CO)[C@H](O)[C@H](O)[C@H]1O)[C@H](O)[C@H](O)CCCCCCCCCCCCC` [Compound 17, (2S,3S,4R)-1-(α-D-galactopyranosyloxy)-2-tetracosanoylamino-3,4-heptadecanediol]: the activity at 1 µg/mL in assay [1] (setting [3]) came out at 410%. For the same compound, in assay [1] (setting [4]), the activity at 0.1 µg/mL worked out at 190%. Further, the activity at 0.01 µg/mL in assay [1] (setting [5]) amounted to 143%. Moreover, the inhibition in vivo at 0.1 mg/kg in assay [2] turned out to be 58%.
As for `CCCCCCCCCCCCCCCCCCCCCCCC(=O)N[C@@H](CO[C@H]1O[C@H](CO)[C@H](O)[C@H](O)[C@H]1O)[C@H](O)[C@H](O)CCCCCCCCCCCC(C)C` [Compound 31, (2S,3S,4R)-1-(α-D-galactopyranosyloxy)-16-methyl-2-tetracosanoylamino-3,4-heptadecanediol], in assay [1] (setting [3]), the activity at 1 µg/mL is 398%. Besides, the activity at 0.1 µg/mL in assay [1] (setting [4]) turned out to be 235%. The activity at 0.01 µg/mL in assay [1] (setting [5]) was 163%. The inhibition in vivo at 0.1 mg/kg in assay [2] was determined as 83.4%.
For “(2S,3S,4R)-1-(α-D-galactopyranosyloxy)-2-[(R)-2-hydroxytetracosanoylamino]-3,4-heptadecanediol [Compound 22]”, the results for the “Uptake of ^3H-TdR (% of control)” value in assay [1] (setting [3]), in assay [1] (setting [4]) and in assay [1] (setting [5]) were 414 % of control, 166 % of control and 149 % of control, respectively. For the same compound, in assay [2], the “TGIR (%)” value is given as 82.4%.
Consider `CCCCCCCCCCCCCCC[C@@H](O)[C@H](CO[C@H]1O[C@H](CO)[C@H](O)[C@H](O)[C@H]1O)NC(=O)CCCCCCC` [Compound 7, (2S,3R)-1-(α-D-galactopyranosyloxy)-2-octanoylamino-3-octadecanol], for which the activity at 1 µg/mL in assay [1] (setting [3]) is 853%. Also, the activity at 0.1 µg/mL in assay [1] (setting [4]) amounted to 576%. In addition, in assay [1] (setting [5]), the activity at 0.01 µg/mL came out at 207%. In addition, in assay [2], the inhibition in vivo at 0.1 mg/kg amounted to 18.5%.
In the same order, the values of `CCCCCCCCCCCCCCCCCCCCCC[C@@H](O)C(=O)N[C@@H](CO[C@H]1O[C@H](CO)[C@H](O)[C@H](O)[C@H]1O)[C@H](O)[C@H](O)CCCCCCCCCCC` [Compound 23, (2S,3S,4R)-1-(α-D-galactopyranosyloxy)-2-[(R)-2-hydroxytetracosanoylamino]-3,4-pentadecanediol] are 423%, 167%, 143% and 94.1%.

Source of the values: EP0609437B1, “NOVEL SPHINGOGLYCOLIPID AND USE THEREOF” (KIRIN BEER KABUSHIKI KAISHA, priority 1991, dated 1993).
